Source: patent US5756517A, “Use of bisquinoline compounds in the treatment of cerebral disorders” (Bayer Aktiengesellschaft, priority 1996, dated 1998)

Tests used:
[1] = biological target: apamin binding sites / apamin receptors (apamin-sensitive potassium channels), calves' cerebral membrane; assay: Binding of 125I-apamin to calves' cerebral membrane; conditions: displacement of 125I-apamin (30 pM), calf hippocampus membranes, 60 min on ice
Description: 1) Binding of ^125 I-apamin to calves' cerebral membrane
Calf brains were obtained from the local abattoir. The hippocampus was prepared on ice and a membrane suspension was made up by homogenization twice in buffer (100 mM Tris-HCl, KCl 5 mM, pH 7.4) and centrifugation at 43,000×g. In a total volume of 500 μl, the incubation mixture contained 200 μg of membrane protein, 30 pM ^125 I-apamin and test substances in the concentration range 1×10^-9 to 1×10^-4 M. The non-specific binding of ^125 I-apamin was determined in the presence of 1×10^-7 M unlabeled apamin.
After preincubation for 30 min at room temperature (test substances and membrane homogenate), the samples were placed on ice for 10 min before the radioligand was added. The main incubation time was 60 min on ice. When the reaction time had elapsed, an excess of ice-cooled incubation buffer was added to each sample and the mixture was filtered with suction through cellulose acetate/nitrate membrane filters. The amount of bound ^125 I-apamin was measured with a gamma counter.

[2] = tested on: apamine-sensitive potassium channels in PC12 cells; assay: Non-radioactive Rb+ efflux assay for the identification of potassium channel modulators (PC12 cells); assay type: cell-based; conditions: Rattus norvegicus, PC-12, 10 min, 10 min stimulation with 50 mM KCl, read-out: % inhibition of the Rb efflux at a test concentration of 10 μM
Description: 2) Non-radioactive Rb^+ efflux assay for the identification of potassium channel modulators
The cellular potassium in PC12 cells is exchanged with rubidium, which is not present in the cells. This exchange is performed by incubating the cells over a period of 4 h in a physiological buffer containing 5.4 mM RbCl without KCl. This rubidium subsequently serves as a tracer for potassium. The cells laden with Rb^+ in this way are washed three times and then stimulated by depolarization with 50 mM KCl to open potassium channels (10 min), causing Rb^+ to flow out of the cells into the supernatant according to the concentration gradient.
The rubidium contents in the cell supernatant and in the residual cells after they have been lyzed with 1% Triton X-100 are then. determined by means of atomic absorption spectroscopy. The relative proportion of rubidium in the cell supernatant (=Rb^+ efflux) is used as a measure of the potassium channel activity.
The effect of substances on the channel activity is measured by co-incubating the test substance over the ten-minute stimulation period and determining its effect on the Rb^+ efflux in the manner described above.

Structure (SMILES) | Ki [1] [nM] | inhibition at 10 µM [2] [%]
Cc1cc(NCCC(O)CCNc2cc(C)nc3ccccc23)c2ccccc2n1 [Example 14] | 190 | –
Cc1cc(NCC(O)CNc2cc(C)nc3ccccc23)c2ccccc2n1 [Example 15] | – | 73
